Test results reported in USRE37078E, “Thiophene compounds” (Adir et Compagnie, priority 1995, dated 2001).

Assays:
mouse = test: acute inflammatory pain test in the mouse (Siegmund test, writhing); format: in vivo; conditions: oral administration, read-out: dose causing 50% inhibition of the reactions of the animal
Text: Exp. Ther. 119, 1957, 184).

[1] = tested on: lipoxygenase pathway (LTB4); test: biosynthesis of mediators of the lipoxygenase pathway in vitro on rat polymorphonucleocytes stimulated by ionophore A23187; format: cell-based
Text: (§1) Tordjman et al. ("High-performance liquid chromatographic quantitation of cyclooxygenase and lipoxygenase metabolites of arachidonic acid from rat polymorphonuclear leucocytes" Journal of Chromatography, 532, 1990, 135-143).

[2] = tested on: cyclooxygenase pathway (PGE2); test: biosynthesis of mediators of the cyclooxygenase pathway in vitro on rat polymorphonucleocytes stimulated by ionophore A23187; format: cell-based
Text: as §1

rat = test: polyarthritis auto-immune model in the rat using Freund's adjuvant; format: in vivo; conditions: oral, 5 mg/kg/day, 14th day of the pathology
Protocol: 3) The activity on chronic inflammation was evaluated in a polyarthritis auto-immune model in the rat using Freund's adjuvant in accordance with the protocol described by J. Bonnet et al. ("Bone morphometric changes in adjuvant-induced polyarthritic osteopenia in rats; evidence for an early bone formation defect" J. Bone Miner. Res. 8, 1993, 659-668). By way of example, the compound of Example 1, at an oral dose of 5 mg/kg/day, inhibits by 30% the diffusion of arthritis on the 14th day of the pathology.

IC50 [1] [nM] | IC50 [2] [nM] | SMILES | ED50 (mouse) [mg/kg] | inhibition of the diffusion of arthritis (rat) [%]
50 | 380 | COc1ccc(-c2cc(CCCC(=O)N(C)O)sc2-c2ccc(OC)cc2)cc1 [Example 6] | 2.5 | –
380 | 750 | COc1ccc(-c2cc(CCC(C)(C)CC(=O)N(C)O)sc2-c2ccc(OC)cc2)cc1 [Example 4] | – | –
1000 | 2500 | COc1ccc(-c2cc(CCC(C)(C)CC(=O)NO)sc2-c2ccc(OC)cc2)cc1 [Example 3] | – | –
80 | 380 | COc1ccc(-c2sc(CCC(=O)N(C)O)cc2-c2ccc(F)cc2)cc1 [Example 2] | 5 | –
50 | 80 | CCN(O)C(=O)CCc1cc(-c2ccc(OC)cc2)c(-c2ccc(OC)cc2)s1 [Example 22] | – | –
50 | 50 | COc1ccc(-c2sc(CCCC(=O)N(C)O)cc2-c2ccc(C)cc2)cc1 [Example 16] | – | –
250 | 2500 | COc1ccc(-c2sc(CCC(C)(C)CC(=O)N(C)O)cc2-c2ccc(F)cc2)cc1 [Example 5] | – | –
30 | 50 | COc1ccc(-c2cc(CCC(=O)N(C)O)sc2-c2ccc(OC)cc2)cc1 [Example 1, 3-[4,5-bis(4-methoxyphenyl)thien-2-yl]-N-hydroxy-N-methylpropionamide] | 1 | 30
